In paper PMC6349845, “Overcoming NADPH product inhibition improves D-sorbitol conversion to L-sorbose” (Scientific Reports, 2019):

Legend:
[1] = biological target: T1, GoSLDH (Gluconobacter oxydans, UniProt Q9KWR5); experiment: isothermal titration calorimetry; format: binding
T1 construct: codon-optimised synthetic gene in pET28a, expressed in E. coli BL21-CodonPlus(DE3)-RIL, purified (His-tag vector)
T1 sequence (Q9KWR5 1-485): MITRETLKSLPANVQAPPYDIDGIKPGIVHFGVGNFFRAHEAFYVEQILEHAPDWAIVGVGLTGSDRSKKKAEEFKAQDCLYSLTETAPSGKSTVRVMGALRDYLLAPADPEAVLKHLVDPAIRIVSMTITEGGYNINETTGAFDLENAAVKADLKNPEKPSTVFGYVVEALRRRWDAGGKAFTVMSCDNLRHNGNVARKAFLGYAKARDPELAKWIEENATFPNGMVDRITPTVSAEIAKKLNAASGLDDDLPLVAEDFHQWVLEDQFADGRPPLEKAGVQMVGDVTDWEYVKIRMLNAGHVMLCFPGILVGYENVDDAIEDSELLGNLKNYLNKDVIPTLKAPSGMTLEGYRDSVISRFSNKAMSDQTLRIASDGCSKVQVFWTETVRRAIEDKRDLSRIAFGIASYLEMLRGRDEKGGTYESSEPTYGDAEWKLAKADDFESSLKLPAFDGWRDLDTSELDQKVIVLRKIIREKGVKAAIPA

[2] = biological target: T1, GoSLDH; experiment: steady-state inhibition kinetics, double-reciprocal plots; format: biochemical

Row | Kd [1] [µM] | Ki [2] [µM] | Structure (SMILES)
1 | 67.1 | 100 | NC(=O)C1=CN([C@@H]2O[C@H](COP(=O)(O)OP(=O)(O)OC[C@H]3O[C@@H](n4cnc5c(N)ncnc54)[C@H](OP(=O)(O)O)[C@@H]3O)[C@@H](O)[C@H]2O)C=CC1 [NADPH]
2 | 89.3 | – | NC(=O)c1ccc[n+]([C@@H]2O[C@H](COP(=O)(O)OP(=O)(O)OC[C@H]3O[C@@H](n4cnc5c(N)ncnc54)[C@H](OP(=O)(O)O)[C@@H]3O)[C@@H](O)[C@H]2O)c1 [NADP^+]
